Consider 2 compounds from ChEMBL document CHEMBL5034035, “Discovery of an Oxycyclohexyl Acid Lysophosphatidic Acid Receptor 1 (LPA1) Antagonist BMS-986278 for the Treatment of Pulmonary Fibrotic Diseases” (J Med Chem, 2021).

Series [1] can be described thus: AUC (0 to 24 hrs) in Cynomolgus monkey plasma at 500 mg/kg, po administered for 4 weeks. Also on record: route oral, time 4 weeks, dose 500 mg/kg. The format is ADME, organism-based, Macaca fascicularis.
Series [2] in a line: Drug metabolism in human hepatocytes assessed as N-demethylation metabolite formation at 10 uM measured after 2 hrs by LC/UV/MS analysis. The series is classed as ADME, cell-based, Hepatocyte.
Series [3] in a line: Hepatobiliary toxicity in Cynomolgus monkey assessed as cholangitis at up to 150 mg/kg/day measured up to 9 months. As to conditions: in vivo. The series is classed as organism-based, Macaca fascicularis.

In turn, `Cc1nc(-c2nnn(C)c2COC(=O)N(C)CC2CCC2)ccc1O[C@H]1CCC[C@H](C(=O)O)C1` displayed an exposure (AUC) at 672 h in series [1] of 962 µg·h/mL. In the case of `CCCN(C)C(=O)OCc1c(-c2ccc(O[C@H]3CCC[C@H](C(=O)O)C3)c(C)n2)nnn1C` [ADMILPARANT], the Drug metabolism result in series [2] is “Metabolite_Detected”. For the same compound, in series [3], the Activity entry is given as “Non-Toxic”.
